Activity calls are given as the source filed them. The rule behind the calls is not given here.
How the values were obtained:
[1] = tested on: MCF7; test: Cytotoxicity against human estrogen receptor positive MCF7 cells at 50 uM after 72 hrs by MTT assay; assay type: functional, cell-based
[2] = tested on: MCF7; test: Cytotoxicity against human estrogen receptor positive MCF7 cells at 0.1 uM after 72 hrs by MTT assay; assay type: functional, cell-based
[3] = tested on: SK-BR-3; test: Cytotoxicity against human estrogen receptor negative SKBR3 cells after 72 hrs by MTT assay; assay type: functional, cell-based; conditions: SK-BR-3, 72 h
[4] = tested on: NIH3T3; test: Cytotoxicity against mouse 3T3 cells assessed as cell viability at 0.1 to 10 uM after 72 hrs by MTT assay; assay type: cell-based; conditions: nih3t3, 72 h
[5] = tested on: SK-BR-3; test: Cytotoxicity against human estrogen receptor negative SKBR3 cells at 10 uM after 72 hrs by MTT assay; assay type: functional, cell-based
[6] = tested on: SK-BR-3; test: Cytotoxicity against human estrogen receptor negative SKBR3 cells at 0.1 to 50 uM after 72 hrs by MTT assay; assay type: functional, cell-based
[7] = tested on: MCF7; test: Cytotoxicity against human estrogen receptor positive MCF7 cells after 72 hrs by MTT assay; assay type: functional, cell-based; conditions: for IC50: MCF7, 72 h
[8] = tested on: MCF7; test: Cytotoxicity against human estrogen receptor positive MCF7 cells at 1 to 10 uM after 72 hrs by MTT assay; assay type: functional, cell-based
[9] = tested on: MCF7; test: Cytotoxicity against human estrogen receptor positive MCF7 cells at 1 uM after 72 hrs by MTT assay; assay type: functional, cell-based

Cc1ccc(N2C(=O)CSC2c2cccc3ccccc23)cc1 (stereo unspecified)
inhibition [1]: inactive | inhibition [2]: Active | IC50 [3]: 250 nM | Activity [4]: Non-toxic

O=C1CSC(c2ccc(Cl)cc2)N1c1ccc(O)cc1 (stereo unspecified)
inhibition [5]: Active | inhibition [6]: inactive | Activity [7]: Dose-dependent effect | IC50 [7]: 5 µM | Activity [8]: Active | Activity [4]: Non-toxic

O=C1CSC(c2ccccc2)N1c1ccccc1 (stereo unspecified)
Activity [7]: Dose-dependent effect | IC50 [3]: 810 nM | Activity [4]: Non-toxic

COc1cc(C2SCC(=O)N2c2ccc(O)cc2)cc(OC)c1OC (stereo unspecified)
inhibition [5]: Active | inhibition [6]: inactive | Activity [7]: Dose-dependent effect | Activity [4]: Non-toxic

O=C1CSC(c2ccc(O)cc2O)N1c1ccc(O)cc1 (stereo unspecified)
inhibition [6]: inactive | Activity [4]: Non-toxic

Cc1ccc(N2C(=O)CSC2c2ccc(Cl)cc2)cc1 (stereo unspecified)
inhibition [5]: Active | inhibition [6]: inactive | Activity [7]: Dose-dependent effect | Activity [4]: Non-toxic

COc1ccc(C2SCC(=O)N2c2ccc(O)cc2)c(OC)c1 (stereo unspecified)
inhibition [6]: inactive | Activity [7]: Dose-dependent effect | Activity [4]: Non-toxic

COc1ccc(C2SCC(=O)N2c2ccc(O)cc2)cc1OC (stereo unspecified)
inhibition [5]: Active | inhibition [6]: inactive | Activity [7]: Dose-dependent effect | IC50 [7]: 2.58 µM | Activity [8]: Active | Activity [4]: Non-toxic

O=C1CSC(c2ccc(O)cc2)N1c1ccc(O)cc1 (stereo unspecified)
inhibition [6]: inactive | Activity [4]: Non-toxic

O=C1CSC(c2cc(O)cc(O)c2)N1c1ccc(O)cc1 (stereo unspecified)
inhibition [5]: Active | inhibition [6]: inactive | Activity [7]: Dose-dependent effect | Activity [4]: Non-toxic

O=C1CSC(c2ccc(O)c(O)c2)N1c1ccc(O)cc1 (stereo unspecified)
inhibition [6]: inactive | inhibition [1]: inactive | inhibition [9]: Active | Activity [4]: Non-toxic

COc1cc(C2SCC(=O)N2c2ccc(C)cc2)cc(OC)c1OC (stereo unspecified)
IC50 [3]: 230 nM | Activity [4]: Non-toxic

Oc1ccc(/C=C/c2cc(O)cc(O)c2)cc1 [RESVERATROL]
IC50 [7]: 28.1 µM | IC50 [3]: 41400 nM
